This note sets out measurements from US11628160B2, “Compositions and methods for treating brain injury” (Azevan Pharmaceuticals, Inc., priority 2017, dated 2023).

Data set [1] deals with T1, human V1a receptor (Homo sapiens, UniProt P37288).
T1 construct: host or cells: CHO cells
Nature of the data set: Inhibition of phosphatidylinositol turnover (V1a). In kind it is cell-based. As to conditions: hV1a cells. An excerpt:
EXAMPLE. Inhibition of phosphatidylinositol turnover (V1a). The physiological effects of vasopressin are mediated through specific G-protein coupled receptors. The V1aR is coupled to the Gq/G11 family of G proteins and mediates phosphatidylinositol turnover. The agonist or antagonist character of the compounds of the invention may be determined by their ability to inhibit vasopressin-mediated turnover of phosphatidylinositol by the procedure described in the following paragraphs.
Cell culture and labeling of cells. Three days prior to the assay, near-confluent cultures of hV1a or hV1b cells were dissociated and seeded in 6-well tissue culture plates, about 100 wells being seeded from each 75 cm^2 flask (equivalent to 12:1 split ratio). Each well contained 1 mL of growth medium with 2 μCi of [^3H]myo-inositol (American Radiolabeled Chemicals, St. Louis, Mo., USA).
Incubations (V1a and V1b). All assays were in triplicate except for basal and 10 nM AVP (both n=6). AVP ((arginine vasopressin), Peninsula Labs, Belmont, Calif., USA (#8103)) was dissolved in 0.1N acetic acid. Test agents were dissolved in DMSO and diluted in DMSO to 200 times the final test concentration. […] The order of incubations was randomized. Incubations were initiated by removing the prelabeling medium, washing the monolayer once with 1 mL of 0.9% NaCl, and transferring the contents of the assay tubes to corresponding wells. The plates were incubated for 1 hour at 37° C. Incubations were terminated by removing the incubation medium and adding 500 μL of ice cold 5% (w/v) trichloroacetic acid and allowing the wells to stand for 15 min.
Measurement of [^3H]inositol phosphates (V1a and V1b). BioRad Poly-Prep Econo-Columns were packed with 0.3 mL of AG 1 X-8 100-200 formate form resin. Resin was mixed 1:1 with water and 0.6 mL added to each column. Columns were then washed with 10 mL water. Scintillation vials (20 mL) were placed under each column. For each well, the contents were transferred to a minicolumn, after which the well was washed with 0.5 mL distilled water, which was also added to the minicolumn. The columns were then washed twice with 5 mL of 5 mM myo-inositol to elute free inositol. Aliquots (1 mL) were transferred to 20 mL scintillation vials and 10 mL of Beckman Ready Protein Plus added. After the myo-inositol wash was complete, empty scintillation vials were placed under the columns, and [^3H]inositol phosphates were eluted with three additions of 1 mL 0.5 M ammonium formate containing 0.1 N formic acid. […] Inositol lipids were measured by adding 1 mL of 2% sodium dodecyl sulfate (SDS) to each well, allowing the wells to stand for at least 30 min., and transferring the solution to 20 mL scintillation vials, to which 10 mL Beckman Ready Protein Plus scintillation fluid was then added. Samples were counted in a Beckman LS 3801 liquid scintillation counter for 10 min. Total inositol incorporation for each well was calculated as the sum of free inositol, inositol phosphates, and inositol lipids.
Data analysis (V1a and V1b): concentration-inhibition experiments. Concentration-response curves for AVP and concentration-inhibition curves for test agents versus 10 nM AVP were analyzed by nonlinear least-squares curve-fitting to a 4-parameter logistic function. […] The curve-fitting was weighted under the assumption that the standard deviation was proportional to dpm of radioactivity. […]

For the next data set, the target named is T2, V1b receptor (Homo sapiens, UniProt P47901).
T2 construct: expressed in transfected cells; host or cells: CHO-K1 (ATCC), vector PCI-neo
T2 sequence (P47901 1-424): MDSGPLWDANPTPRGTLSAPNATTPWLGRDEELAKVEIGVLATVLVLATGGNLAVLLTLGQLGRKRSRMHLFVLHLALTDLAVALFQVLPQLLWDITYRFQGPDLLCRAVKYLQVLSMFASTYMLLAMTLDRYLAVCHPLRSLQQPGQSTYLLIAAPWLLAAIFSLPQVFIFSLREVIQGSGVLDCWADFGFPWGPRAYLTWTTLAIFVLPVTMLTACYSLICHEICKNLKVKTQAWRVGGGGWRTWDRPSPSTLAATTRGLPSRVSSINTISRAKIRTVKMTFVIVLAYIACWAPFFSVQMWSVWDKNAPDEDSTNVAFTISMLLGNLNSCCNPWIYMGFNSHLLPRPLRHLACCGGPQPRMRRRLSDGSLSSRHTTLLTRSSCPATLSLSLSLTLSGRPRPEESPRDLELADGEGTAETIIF
The data set is described as follows: Human or rat vasopressin V1b cell-based receptor binding assay. The settings on record: selectivity table; read-out: inhibition data Ki, V1b. From the text: EXAMPLE. Human vasopressin V1b receptor-expressing cells. Human vasopressin receptor 1b (hV1b) cDNA (see, Lolait et al., “Extrapituitary expression of the rat V1b vasopressin receptor gene” Proc. Natl. Acad. Sci. USA. 92:6783-7 (1995); de Keyzer et al., “Cloning and characterization of the human V3(V1b) pituitary vasopressin receptor” FEBS Lett. 356:215-20 (1994); Sugimoto et al., “Molecular cloning and functional expression of a cDNA encoding the human V1b vasopressin receptor” J. Biol. Chem. 269:27088-92 (1994)) was inserted into a mammalian cell expression vector PCI-neo (Promega) at EcoR1 site. The recombinant plasmid carrying hV1b cDNA was identified from transformed E. Coli clones and used for the transfection of Chinese hamster ovary cell (CHO-K1, ATCC). Two micrograms of hV1b receptor DNA was introduced into 10^5 CHO cells cultured in 6-well plate, using Fugene-6 mediated transfection technique (Boehringer Mannheim). Twenty-four hrs post transfection, Cells were then cultured under selection of G-418 (0.25 mg/ml) supplemented to the culture medium. Three days later, limited dilution was carried out to obtain single cell clones in 96-well plates. […]
EXAMPLE. […] Samples were counted in a liquid scintillation counter (Beckman LS3801). IC50 and Ki values were calculated using Prism Curve fitting software. […]

Another data set is described as follows: Pharmacokinetics. The settings on record: b.i.d. dosing. In kind it is in vivo. From the text: EXAMPLE. Pharmacokinetics. Compounds described herein are rapidly absorbed after oral administration. Compounds described herein cross the blood-brain-barrier and achieve therapeutically effective concentrations in the CNS. Compounds described herein may be dosed according to a wide variety of protocols, including but not limited to q.d., b.i.d., and the like.

The target of a further data set is V2 (Homo sapiens, UniProt P30518). Nature of the data set: V2 receptor inhibition data (Ki). In kind it is binding. The settings on record: selectivity table.
Data set [2] deals with T1, human V1a receptor. The data set is described as follows: Human vasopressin V1a receptor binding assay. As to conditions: hV1a cell line, [3H]-AVP. A digest of the protocol: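 Whole CHO cells expressing human V1a incubated with 1 nM 3H-AVP and 10-fold compound dilutions in 25 mM Hepes, 0.25% BSA, DMEM pH 7.0 for 45 min at 37 °C. Nonspecific binding with 100 nM unlabelled AVP. Cells SDS-lysed, scintillation counted; IC50 by curve fitting.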

T1 sequence (P37288 whole entry): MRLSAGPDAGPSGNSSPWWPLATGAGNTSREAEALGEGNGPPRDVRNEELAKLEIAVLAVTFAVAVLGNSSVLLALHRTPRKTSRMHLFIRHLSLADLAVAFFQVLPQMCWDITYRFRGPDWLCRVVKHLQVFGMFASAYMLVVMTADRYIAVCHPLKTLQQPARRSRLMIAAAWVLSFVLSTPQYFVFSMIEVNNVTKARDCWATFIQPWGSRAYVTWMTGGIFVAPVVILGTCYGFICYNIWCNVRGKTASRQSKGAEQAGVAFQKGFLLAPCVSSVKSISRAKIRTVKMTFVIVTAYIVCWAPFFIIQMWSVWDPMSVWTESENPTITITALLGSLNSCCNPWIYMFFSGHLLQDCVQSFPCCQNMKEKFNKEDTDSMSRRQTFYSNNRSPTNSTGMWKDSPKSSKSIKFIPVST
V2, sequence (P30518 whole entry): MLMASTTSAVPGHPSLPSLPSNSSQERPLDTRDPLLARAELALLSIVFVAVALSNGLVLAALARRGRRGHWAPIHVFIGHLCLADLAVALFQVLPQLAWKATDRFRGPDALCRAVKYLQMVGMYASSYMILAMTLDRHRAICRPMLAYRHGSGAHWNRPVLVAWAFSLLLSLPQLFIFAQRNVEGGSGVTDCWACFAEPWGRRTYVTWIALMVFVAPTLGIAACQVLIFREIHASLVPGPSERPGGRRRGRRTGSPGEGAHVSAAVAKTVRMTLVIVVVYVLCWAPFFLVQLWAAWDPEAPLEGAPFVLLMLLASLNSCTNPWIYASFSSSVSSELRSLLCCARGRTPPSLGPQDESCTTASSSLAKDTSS

Consider `O=C(NCc1cccc(C(F)(F)F)c1)[C@H](CCC(=O)N1CCN(CCc2ccccc2)CC1)N1C(=O)[C@@H](N2C(=O)OC[C@@H]2c2ccccc2)[C@H]1C=Cc1ccccc1` (single isomer, unassigned) [Example 35], for which, at human V1a receptor [1], the “agonist or antagonist character (inhibition of vasopressin-mediated phosphatidylinositol turnover)” value is “vasopressin V1a antagonists”.

Turning to `O=C(NCc1cccc(C(F)(F)F)c1)C(CCC(=O)N1CCN(C2CCCCC2)CC1)N1C(=O)C(N2C(=O)OCC2c2ccccc2)C1C=Cc1ccccc1` (single isomer, unassigned) [Example 110], the “agonist or antagonist character (inhibition of vasopressin-mediated phosphatidylinositol turnover)” value at human V1a receptor [1] is given as “vasopressin V1a antagonists”.

`O=C(NCc1cccc(C(F)(F)F)c1)C(CC(=O)N1CCC(N2CCCCC2)CC1)N1C(=O)C(N2C(=O)OCC2c2ccccc2)C1C=Cc1ccccc1` (stereo not shown) [Example 44]: the “agonist or antagonist character (inhibition of vasopressin-mediated phosphatidylinositol turnover)” value at human V1a receptor [1] was “vasopressin V1a antagonists”.

On to `O=C(NCc1cccc(C(F)(F)F)c1)C(CCC(=O)N1CCC(N2CCCCC2)CC1)N1C(=O)C(N2C(=O)OCC2c2ccccc2)C1C=Cc1ccccc1` (stereo not shown) [Example 88], for which, on human V1a receptor [1], the “agonist or antagonist character (inhibition of vasopressin-mediated phosphatidylinositol turnover)” value was “vasopressin V1a antagonists”.

In the case of `O=C(NCc1cccc(C(F)(F)F)c1)C(CC(=O)N1CCC(N2CCCCC2)CC1)N1C(=O)C(N2C(=O)OCC2c2ccccc2)C1C=Cc1ccccc1` (stereo not shown) [Example 133], at human V1a receptor [1], the “agonist or antagonist character (inhibition of vasopressin-mediated phosphatidylinositol turnover)” value is listed as “vasopressin V1a antagonists”.

A word on the Ki: it is a dissociation constant, usually derived from enzyme kinetics or from competition with a known ligand. For the compound `C[C@@H](NC(=O)[C@@H](CC(=O)N1CCC(N2CCCCC2)CC1)N1C(=O)[C@@H](N2C(=O)OC[C@@H]2c2ccccc2)[C@H]1/C=C/c1ccccc1)c1ccccc1` [Example 224, 2(R)-[[4-(Piperidinyl)piperidinyl]carbonylmethyl]-2-[3(S)-(4(S)-phenyloxazolidin-2-on-3-yl)-4(R)-(2-styryl)azetidin-2-on-1-yl]acetic acid N—[(R)-α-methylbenzyl]amide], on V1b receptor, the Ki was greater than 1000 nM. Besides, in “Pharmacokinetics”, the T1/2 entry was “improved” and the accumulation amounted to 1.7 fold. Moreover, on V2, the Ki is greater than 1000 nM.

The term IC50 denotes the concentration needed to halve the response being measured. A low value points to inhibition by little substance. In the case of `CN(Cc1cccc(C(F)(F)F)c1)C(=O)[C@@H](CC(=O)N1CCC(N2CCCCC2)CC1)N1C(=O)[C@@H](N2C(=O)OC[C@@H]2c2ccccc2)[C@H]1/C=C/c1ccccc1` [Example 225, 2(R)-[[4-(Piperidinyl)piperidinyl]carbonylmethyl]-2-[3(S)-(4(S)-phenyloxazolidin-2-on-3-yl)-4(R)-(2-styryl)azetidin-2-on-1-yl]acetic acid N-methyl-N-(3-trifluoromethylbenzyl)amide], the Ki is greater than 1000 nM at V1b receptor, 1.14 to 1.3 nM on human V1a receptor [2] and greater than 1000 nM at V2. On human V1a receptor [2], this compound registered an IC50 of 1.86 to 2.13 nM.
